Data reported in US20110081315A1, “NOVEL MACROCYCLIC INHIBITORS OF HEPATITIS C VIRUS REPLICATION” (INTERMUNE, INC., priority 2009, published 2011).

Tests used:
hepatitis C replicon = hepatitis C replicon EC50 assay; format: cell-based; details: Hepatitis C virus; hepatitis C replicon; read-out: EC50
Summary of the method: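 NS3/NS4 protease complexes were formed and compound inhibitory concentrations (IC50) measured at ambient temperature (23° C.) in 50 mM Tris-HCl, pH 7.5, with 15% glycerol, 0.6 mM LDAO, 25 μM NS4A peptide and 10 mM DTT. Replicon EC50 values come from a standard HCV replicon cell assay.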

NS3/NS4 complexes = NS3/NS4 complexes (Hepatitis C virus genotype 1a, UniProt P27958); assay: NS3/NS4 inhibition assay (IC50); format: biochemical; details: NS3/NS4 activity; 23° C., 25 μM NS4A peptide
Sequence of NS3/NS4 complexes (P27958 1027-1657, one chain of several): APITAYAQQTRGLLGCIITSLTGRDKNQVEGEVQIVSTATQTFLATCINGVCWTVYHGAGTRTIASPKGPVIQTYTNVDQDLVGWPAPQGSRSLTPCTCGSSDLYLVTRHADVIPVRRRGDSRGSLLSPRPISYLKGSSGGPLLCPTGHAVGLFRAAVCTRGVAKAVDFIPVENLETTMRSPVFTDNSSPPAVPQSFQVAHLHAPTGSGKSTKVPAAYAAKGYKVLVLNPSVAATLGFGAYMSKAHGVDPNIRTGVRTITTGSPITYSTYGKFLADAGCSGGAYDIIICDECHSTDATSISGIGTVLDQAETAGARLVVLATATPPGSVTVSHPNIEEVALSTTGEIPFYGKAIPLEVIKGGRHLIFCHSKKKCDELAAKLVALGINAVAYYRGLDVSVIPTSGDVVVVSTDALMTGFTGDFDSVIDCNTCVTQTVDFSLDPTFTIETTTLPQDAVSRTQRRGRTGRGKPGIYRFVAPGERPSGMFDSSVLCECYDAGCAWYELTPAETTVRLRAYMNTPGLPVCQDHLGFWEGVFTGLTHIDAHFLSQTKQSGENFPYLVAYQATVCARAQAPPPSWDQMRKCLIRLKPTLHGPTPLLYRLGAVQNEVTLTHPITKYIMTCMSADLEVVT
Summary of the method: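 First, NS3 and NS4 are complexed; test compounds are then titrated against the complex at room temperature (23° C.) in Tris-HCl buffer, pH 7.5, supplemented with glycerol (15%), LDAO (0.6 mM), DTT (10 mM) and NS4A peptide (25 μM) to give IC50. Separately, replicon cells give EC50.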

Compound | EC50 (hepatitis C replicon) [nM] | IC50 (NS3/NS4 complexes) [nM]
CC(C)n1c(O[C@@H]2C[C@H]3C(=O)N[C@]4(C(=O)NS(=O)(=O)C5(C)CC5)C[C@H]4/C=C\CCCCC[C@H](NC(=O)OC(C)(C)C)C(=O)N3C2)nc2c(-c3nc(Cc4cccc(F)c4)cs3)cccc21 [Compound 1725] | < 10 | < 10
CC(C)n1c(O[C@@H]2C[C@H]3C(=O)N[C@]4(C(=O)NS(=O)(=O)C5(C)CC5)C[C@H]4/C=C\CCCCC[C@H](NC(=O)OC(C)(C)C)C(=O)N3C2)nc2c(-c3nc(Cc4ccc(F)cc4)cs3)cccc21 [Compound 1726] | < 10 | < 10
CC(C)n1c(O[C@@H]2C[C@H]3C(=O)N[C@]4(C(=O)NS(=O)(=O)C5(C)CC5)C[C@H]4/C=C\CCCCC[C@H](NC(=O)OC(C)(C)C)C(=O)N3C2)nc2c(-c3nc(Cc4ccccc4Cl)cs3)cccc21 [Compound 1727] | < 10 | < 10
CC(C)n1c(O[C@@H]2C[C@H]3C(=O)N[C@]4(C(=O)NS(=O)(=O)C5(C)CC5)C[C@H]4/C=C\CCCCC[C@H](Nc4ccc(F)cc4)C(=O)N3C2)nc2c(-c3nc(C4CCCC4)cs3)cccc21 [Compound 1728] | > 100 | < 10
CC(C)n1c(O[C@@H]2C[C@H]3C(=O)N[C@]4(C(=O)NS(=O)(=O)C5(C)CC5)C[C@H]4/C=C\CCCCC[C@H](Nc4cccc(F)c4)C(=O)N3C2)nc2c(-c3nc(C4CCCC4)cs3)cccc21 [Compound 1729] | 10 to 100 | < 10
CC(C)n1c(O[C@@H]2C[C@H]3C(=O)N[C@]4(C(=O)NS(=O)(=O)C5(C)CC5)C[C@H]4/C=C\CCCCC[C@H](NC(=O)OC4CCCC4)C(=O)N3C2)nc2c(-c3nc(-c4ccccc4)cs3)cccc21 [Compound 1730] | < 10 | < 10
CC(C)n1c(O[C@@H]2C[C@H]3C(=O)N[C@]4(C(=O)NS(=O)(=O)C5(C)CC5)C[C@H]4/C=C\CCCCC[C@H](NC(=O)O[C@@H]4C[C@@H]5C[C@@H]5C4)C(=O)N3C2)nc2c(-c3nc(-c4ccccc4)cs3)cccc21 [Compound 1731] | < 10 | < 10
CC(C)n1c(O[C@@H]2C[C@H]3C(=O)N[C@]4(C(=O)NS(=O)(=O)C5(C)CC5)C[C@H]4/C=C\CCCCC[C@H](NC(=O)N4CCCC4)C(=O)N3C2)nc2c(-c3nc(-c4ccccc4)cs3)cccc21 [Compound 1732] | < 10 | < 10
COc1ccc2c(O[C@@H]3C[C@H]4C(=O)N[C@]5(C(=O)NS(=O)(=O)C6(C)CC6)C[C@H]5/C=C\CCCCC[C@H](NC(=O)N5CCCC5)C(=O)N4C3)cc(-c3nc(C(C)C)cs3)nc2c1C [Compound 1733] | < 10 | < 10
CC(C)n1c(O[C@@H]2C[C@H]3C(=O)N[C@]4(C(=O)NS(=O)(=O)N(C)C)C[C@H]4/C=C\CCCCC[C@H](NC(=O)OC(C)(C)C)C(=O)N3C2)nc2c(-c3nc(-c4ccccn4)cs3)cccc21 [Compound 1735] | < 10 | < 10
CC(C)n1c(O[C@@H]2C[C@H]3C(=O)N[C@]4(C(=O)NS(=O)(=O)N(C)C)C[C@H]4/C=C\CCCCC[C@H](NC(=O)OC(C)(C)C)C(=O)N3C2)nc2c(-c3nc(-c4cccnc4)cs3)cccc21 [Compound 1736] | < 10 | < 10
CC(C)n1c(O[C@@H]2C[C@H]3C(=O)N[C@]4(C(=O)NS(=O)(=O)N(C)C)C[C@H]4/C=C\CCCCC[C@H](NC(=O)OC(C)(C)C)C(=O)N3C2)nc2c(-c3nc(-c4ccncc4)cs3)cccc21 [Compound 1737] | < 10 | < 10
COc1ccc(-c2cccc3c2nc(O[C@@H]2C[C@H]4C(=O)N[C@]5(C(=O)NS(=O)(=O)N(C)C)C[C@H]5/C=C\CCCCC[C@H](NC(=O)OC(C)(C)C)C(=O)N4C2)n3C(C)C)cn1 [Compound 1739] | 10 to 100 | < 10
CC(C)n1c(O[C@@H]2C[C@H]3C(=O)N[C@]4(C(=O)NS(=O)(=O)N(C)C)C[C@H]4/C=C\CCCCC[C@H](NC(=O)OC(C)(C)C)C(=O)N3C2)nc2c(-c3csc(-c4ccccc4)n3)cccc21 [Compound 1740] | 10 to 100 | < 10
CC(C)n1c(O[C@@H]2C[C@H]3C(=O)N[C@]4(C(=O)NS(=O)(=O)N(C)C)C[C@H]4/C=C\CCCCC[C@H](NC(=O)OC(C)(C)C)C(=O)N3C2)nc2c(-c3csc(N4CCOCC4)n3)cccc21 [Compound 1741] | < 10 | < 10
CC(C)n1c(O[C@@H]2C[C@H]3C(=O)N[C@]4(C(=O)NS(=O)(=O)N(C)C)C[C@H]4/C=C\CCCCC[C@H](NC(=O)OC(C)(C)C)C(=O)N3C2)nc2c(-c3csc(N4CCCCC4)n3)cccc21 [Compound 1742] | 10 to 100 | < 10
CC(C)n1c(O[C@@H]2C[C@H]3C(=O)N[C@]4(C(=O)NS(=O)(=O)N(C)C)C[C@H]4/C=C\CCCCC[C@H](NC(=O)OC(C)(C)C)C(=O)N3C2)nc2c(-c3csc(C(C)(C)C)n3)cccc21 [Compound 1743] | 10 to 100 | < 10

Compound | EC50 (hepatitis C replicon) [nM] | IC50 (NS3/NS4 complexes) [nM]
CC(C)n1c(O[C@@H]2C[C@H]3C(=O)N[C@]4(C(=O)NS(=O)(=O)N(C)C)C[C@H]4/C=C\CCCCC[C@H](NC(=O)OC(C)(C)C)C(=O)N3C2)nc2c(-c3cnc(N4CCOCC4)cn3)cccc21 [Compound 1744] | < 10 | < 10
CC(C)n1c(O[C@@H]2C[C@H]3C(=O)N[C@]4(C(=O)NS(=O)(=O)N5CCC5)C[C@H]4/C=C\CCCCC[C@H](NC(=O)OC(C)(C)C)C(=O)N3C2)nc2c(-c3nc(C4CCCC4)cs3)cccc21 [Compound 1745] | 10 to 100 | < 10
Cc1ccc(-c2csc(-c3cccc4c3nc(O[C@@H]3C[C@H]5C(=O)N[C@]6(C(=O)NS(=O)(=O)N(C)C)C[C@H]6/C=C\CCCCC[C@H](NC(=O)OC(C)(C)C)C(=O)N5C3)n4C(C)C)n2)cc1 [Compound 1746] | 10 to 100 | < 10
CC(C)n1c(O[C@@H]2C[C@H]3C(=O)N[C@]4(C(=O)NS(=O)(=O)N(C)C)C[C@H]4/C=C\CCCCC[C@H](NC(=O)OC(C)(C)C)C(=O)N3C2)nc2c(-c3nc(-c4ccccc4F)cs3)cccc21 [Compound 1747] | 10 to 100 | < 10
Cc1ccccc1-c1csc(-c2cccc3c2nc(O[C@@H]2C[C@H]4C(=O)N[C@]5(C(=O)NS(=O)(=O)N(C)C)C[C@H]5/C=C\CCCCC[C@H](NC(=O)OC(C)(C)C)C(=O)N4C2)n3C(C)C)n1 [Compound 1748] | 10 to 100 | < 10
CC(C)n1c(O[C@@H]2C[C@H]3C(=O)N[C@]4(C(=O)NS(=O)(=O)N(C)C)C[C@H]4/C=C\CCCCC[C@H](NC(=O)OC(C)(C)C)C(=O)N3C2)nc2c(-c3nc(-c4ccccc4Cl)cs3)cccc21 [Compound 1749] | 10 to 100 | < 10
Cc1cccc(-c2csc(-c3cccc4c3nc(O[C@@H]3C[C@H]5C(=O)N[C@]6(C(=O)NS(=O)(=O)N(C)C)C[C@H]6/C=C\CCCCC[C@H](NC(=O)OC(C)(C)C)C(=O)N5C3)n4C(C)C)n2)c1 [Compound 1750] | 10 to 100 | < 10
CC(C)n1c(O[C@@H]2C[C@H]3C(=O)N[C@]4(C(=O)NS(=O)(=O)N(C)C)C[C@H]4/C=C\CCCCC[C@H](NC(=O)OC(C)(C)C)C(=O)N3C2)nc2c(-c3nc(-c4ccc(Cl)cc4)cs3)cccc21 [Compound 1751] | 10 to 100 | < 10
COc1ccc(-c2csc(-c3cccc4c3nc(O[C@@H]3C[C@H]5C(=O)N[C@]6(C(=O)NS(=O)(=O)N(C)C)C[C@H]6/C=C\CCCCC[C@H](NC(=O)OC(C)(C)C)C(=O)N5C3)n4C(C)C)n2)cc1 [Compound 1752] | 10 to 100 | < 10
CC(C)n1c(O[C@@H]2C[C@H]3C(=O)N[C@]4(C(=O)NS(=O)(=O)N(C)C)C[C@H]4/C=C\CCCCC[C@H](NC(=O)OC(C)(C)C)C(=O)N3C2)nc2c(-c3nc(-c4ccc(-c5ccccc5)cc4)cs3)cccc21 [Compound 1753] | 10 to 100 | < 10
Cc1ccc(-c2csc(-c3cccc4c3nc(O[C@@H]3C[C@H]5C(=O)N[C@]6(C(=O)NS(=O)(=O)N(C)C)C[C@H]6/C=C\CCCCC[C@H](NC(=O)OC(C)(C)C)C(=O)N5C3)n4C(C)C)n2)c(C)c1 [Compound 1754] | 10 to 100 | < 10
CC(C)n1c(O[C@@H]2C[C@H]3C(=O)N[C@]4(C(=O)NS(=O)(=O)N(C)C)C[C@H]4/C=C\CCCCC[C@H](NC(=O)OC(C)(C)C)C(=O)N3C2)nc2c(-c3nc(Cc4ccc(F)c(F)c4)cs3)cccc21 [Compound 1755] | 10 to 100 | < 10
CC(C)n1c(O[C@@H]2C[C@H]3C(=O)N[C@]4(C(=O)NS(=O)(=O)N(C)C)C[C@H]4/C=C\CCCCC[C@H](NC(=O)OC(C)(C)C)C(=O)N3C2)nc2c(-c3nc(Cc4cc(F)cc(F)c4)cs3)cccc21 [Compound 1756] | 10 to 100 | < 10
COc1ccc(Cc2csc(-c3cccc4c3nc(O[C@@H]3C[C@H]5C(=O)N[C@]6(C(=O)NS(=O)(=O)N(C)C)C[C@H]6/C=C\CCCCC[C@H](NC(=O)OC(C)(C)C)C(=O)N5C3)n4C(C)C)n2)cc1OC [Compound 1757] | < 10 | < 10
CC(C)n1c(O[C@@H]2C[C@H]3C(=O)N[C@]4(C(=O)NS(=O)(=O)N(C)C)C[C@H]4/C=C\CCCCC[C@H](NC(=O)OC(C)(C)C)C(=O)N3C2)nc2c(-c3nc(Cc4cccc(F)c4)cs3)cccc21 [Compound 1758] | 10 to 100 | < 10
CC(C)n1c(O[C@@H]2C[C@H]3C(=O)N[C@]4(C(=O)NS(=O)(=O)N(C)C)C[C@H]4/C=C\CCCCC[C@H](NC(=O)OC(C)(C)C)C(=O)N3C2)nc2c(-c3nc(Cc4ccc(F)cc4)cs3)cccc21 [Compound 1759] | < 10 | < 10
CC(C)n1c(O[C@@H]2C[C@H]3C(=O)N[C@]4(C(=O)NS(=O)(=O)N(C)C)C[C@H]4/C=C\CCCCC[C@H](NC(=O)OC(C)(C)C)C(=O)N3C2)nc2c(-c3nc(Cc4ccccc4Cl)cs3)cccc21 [Compound 1760] | 10 to 100 | < 10
